± gives the expanded uncertainty stated by the source.
Conditions: for speed of sound: Brillouin scattering; for vapor or sublimation pressure: Closed cell (Static) method

CCCCCCC [heptane]
speed of sound [m/s], Liquid
Conditions | 1000 kPa | 2500 kPa | 4000 kPa | 5500 kPa | 7000 kPa | 8500 kPa
302.15 K | 1112.9 ± 36 | 1126.4 ± 36 | 1139 ± 36 | 1152 ± 37 | 1163.2 ± 37 | 1174.3 ± 38
318.15 K | 1054.1 ± 34 | 1066.6 ± 34 | 1079 ± 34 | 1091 ± 35 | 1102 ± 35 | 1113 ± 36
333.15 K | 997.8 ± 32 | 1010 ± 32 | 1022 ± 33 | 1034 ± 33 | 1045 ± 34 | 1057 ± 34
348.15 K | 940.3 ± 30 | 952.9 ± 30 | 965.3 ± 31 | 977.6 ± 31 | 989.7 ± 32 | 1002 ± 32
363.15 K | 881.6 ± 28 | 895.3 ± 29 | 908.8 ± 29 | 922 ± 30 | 934.9 ± 30 | 947.6 ± 30
378.15 K | 821.8 ± 26 | 837.2 ± 27 | 852.2 ± 27 | 866.8 ± 28 | 881 ± 28 | 894.7 ± 29
393.15 K | 760.8 ± 24 | 778.7 ± 25 | 795.8 ± 26 | 812.2 ± 26 | 827.9 ± 26 | 842.9 ± 27
408.15 K | 698.6 ± 22 | 719.6 ± 23 | 739.4 ± 24 | 758.2 ± 24 | 775.8 ± 25 | 792.2 ± 25
418.15 K | 656.6 ± 21 | 680 ± 22 | 701.9 ± 22 | 722.4 ± 23 | 741.5 ± 24 | 759.1 ± 24
428.15 K | 614 ± 20 | 640.1 ± 20 | 664.4 ± 21 | 686.9 ± 22 | 707.6 ± 23 | 726.4 ± 23
438.15 K | 570.9 ± 18 | 600 ± 19 | 626.9 ± 20 | 651.6 ± 21 | 674 ± 22 | 694.3 ± 22
448.15 K | 527.2 ± 17 | 559.7 ± 18 | 589.5 ± 19 | 616.6 ± 20 | 640.9 ± 21 | 662.6 ± 21
453.15 K | 505.2 ± 16 | 539.5 ± 17 | 570.8 ± 18 | 599.1 ± 19 | 624.5 ± 20 | 647 ± 21
458.15 K | 483.1 ± 16 | 519.2 ± 17 | 552.1 ± 18 | 581.7 ± 19 | 608.2 ± 20 | 631.4 ± 20
463.15 K | – | 498.9 ± 16 | 533.4 ± 17 | 564.4 ± 18 | 592 ± 19 | 616 ± 20
468.15 K | – | 478.5 ± 15 | 514.7 ± 16 | 547.2 ± 18 | 559.8 ± 18 | 600.8 ± 19
473.15 K | – | 458 ± 15 | 496 ± 16 | 530 ± 17 | 543.9 ± 18 | 570.6 ± 18
478.15 K | – | 437.5 ± 14 | 477.4 ± 15 | 512 ± 16 | 528.1 ± 17 | 555.7 ± 18
483.15 K | – | 416.9 ± 13 | 458.7 ± 15 | 495.7 ± 16 | 512.3 ± 16 | 540.9 ± 17
488.15 K | – | 396.3 ± 13 | 440 ± 14 | 478.7 ± 15 | 496.7 ± 16 | 526.3 ± 17
493.15 K | – | 375.7 ± 12 | 421.4 ± 14 | 461.7 ± 15 | – | –
498.15 K | – | 354.9 ± 11 | 402.8 ± 13 | 444.8 ± 14 | – | –
503.15 K | – | 334.2 ± 11 | 384.1 ± 12 | 428 ± 14 | – | –
508.15 K | – | 313.3 ± 10 | 365.5 ± 12 | 411.2 ± 13 | – | –
513.15 K | – | 292.4 ± 9.5 | 346.9 ± 11 | 394.5 ± 13 | – | –
518.15 K | – | 271.5 ± 8.8 | 328.3 ± 11 | 377.8 ± 12 | – | –
523.15 K | – | – | 309.7 ± 10 | 361.2 ± 12 | – | –
528.15 K | – | – | 291.1 ± 9.4 | 344.6 ± 11 | – | –

Conditions | speed of sound, Gas [m/s] | speed of sound, Liquid [m/s] | vapor or sublimation pressure, Liquid [kPa]
302.15 K | – | 1108 ± 35 | 12
318.15 K | – | 1042 ± 33 | 31 ± 30
333.15 K | – | 981.5 ± 31 | 50 ± 30
348.15 K | – | 921.1 ± 30 | 84 ± 30
363.15 K | – | 861.2 ± 28 | 116 ± 30
378.15 K | – | 801.6 ± 26 | 152 ± 30
393.15 K | – | 742.3 ± 24 | 204 ± 30
408.15 K | 170.3 ± 5.5 | 683.1 ± 22 | 286 ± 30
418.15 K | 168.1 ± 5.5 | 643.5 ± 21 | 352 ± 30
428.15 K | 165.9 ± 5.4 | 603.9 ± 19 | 441 ± 30
438.15 K | 163.4 ± 5.3 | 564 ± 18 | 535 ± 30
448.15 K | 160.5 ± 5.2 | 523.9 ± 17 | 654 ± 30
453.15 K | 158.8 ± 5.2 | 503.6 ± 16 | 711 ± 30
458.15 K | 157 ± 5.1 | 483.3 ± 16 | 780 ± 30
463.15 K | 155 ± 5.1 | 462.8 ± 15 | 853 ± 30
468.15 K | 152.8 ± 5 | 442.2 ± 14 | 935 ± 30
473.15 K | 150.3 ± 4.9 | 421.3 ± 14 | 1022 ± 30
478.15 K | 147.5 ± 4.8 | 400.3 ± 13 | 1114 ± 30
483.15 K | 144.5 ± 4.7 | 379 ± 12 | 1203 ± 30
488.15 K | 141.2 ± 4.6 | 357.4 ± 12 | 1307 ± 30
493.15 K | 137.5 ± 4.5 | 335.4 ± 11 | 1409 ± 30
498.15 K | 133.4 ± 4.4 | 313 ± 10 | 1532 ± 30
503.15 K | 129 ± 4.2 | 290.1 ± 9.3 | 1649 ± 30
508.15 K | 124.1 ± 4.1 | 266.6 ± 8.6 | 1781 ± 30
513.15 K | 118.7 ± 3.9 | 242.4 ± 7.8 | 1910 ± 30
518.15 K | 112.8 ± 3.7 | 217.3 ± 7 | 2049 ± 30
523.15 K | 106.4 ± 3.5 | 190.9 ± 6.2 | 2201 ± 30
528.15 K | 99.37 ± 3.3 | 162.7 ± 5.3 | 2358 ± 30
533.15 K | 91.71 ± 3.1 | 131.9 ± 4.3 | 2519 ± 30
536.15 K | 86.78 ± 3 | 111.1 ± 3.7 | 2630 ± 30

From the NIST ThermoML archive (doi:10.1021/je501106d)
